Earlier results in US8394287B2, “Non-aqueous heat transfer fluid and use thereof” (priority 2001, dated 2013).

Tested on: human
Conditions: Federal Register Vol. 63, No. 27, Feb. 10, 1998

OCCO [EG, ethylene glycol]
lethal dose for a human: approximately 1,570 mg/kg body mass
